Source: patent US20040053424A1, “Continuous-flow homogeneous biochemical assays based on mass spectrometric detection of known ligands” (priority 2000, published 2004)

Legend:
[1] = system: fab fragments of anti-digoxigenin antibodies (fab anti-digoxigenin); assay: homogeneous on-line mass spectrometric biochemical assay, fab anti-digoxigenin / digoxigenin reporter; assay type: binding; conditions: 100 nmol/l fab anti-digoxigenin, 200 nmol/l digoxigenin; FIG. 3, point 4
Description: To a carrier solution consisting of 10 mmol/L ammonium formate/methanol (90:10, v/v) pumped at a flow rate of 50 μl/min a solution of 100 nmol/l fab anti-digoxigenin dissolved in 10 mmol/L ammonium formate was added at a flow rate of 50 μl/min. The mixture was pumped through a knitted 300 μm i.d. poly(tetrafluoroethylene) reaction coil with an internal volume of 65 μl. Subsequently, a solution of 200 nmol/l digoxigenin dissolved in 10 mmol/L ammonium formate/methanol (90:10, v/v) is added at a flow rate of 100 ill/min. The mixture was then pumped through a knitted 300 μm i.d. poly(tetrafluoroethylene) reaction coil with an internal volume of 33 μl and subsequently introduced into a mass spectrometer equipped with an electrospray ionization (ESI) source. Mass spectrometry was operated in selected-ion monitoring (SIM) in the positive-ion (PI) mode on [M+H]+and on one or more intense fragment ions.
At point 1, only carrier buffer was pumped into the mass spectrometer providing a reference background signal. At point 2, the digoxigenin pump was switched on leading to an increase of the selected-ion monitoring MS signal at m/z 408 (the ammonium adduct of digoxigenin). At point 3, the fab anti-digoxigenin pump was switched on.

[2] = molecular target: streptavidin (Streptomyces avidinii, UniProt P22629); assay: homogeneous on-line mass spectrometric biochemical assay, streptavidin / fluorescein-biotin reporter; assay type: binding; conditions: for effect of analyte injection on binding of reporter fluorescein-biotin to streptavidin (SIM MS signal at m/z 390): equal concentrations injected, 32 nmol/l streptavidin, 96 nmol/l fluorescein-biotin, FIG. 2
Sequence of streptavidin (P22629 25-183): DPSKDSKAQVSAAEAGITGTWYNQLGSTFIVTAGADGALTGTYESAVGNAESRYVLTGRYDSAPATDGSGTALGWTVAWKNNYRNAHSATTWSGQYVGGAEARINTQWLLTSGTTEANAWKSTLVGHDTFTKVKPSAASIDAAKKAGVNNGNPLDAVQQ
Description: Streptavidin is a well-known affinity protein with a high affinity for biotin and biotinylated compounds. To a carrier solution consisting of 10 mmol/L ammonium formate/methanol (90:10, v/v) pumped at a flow rate of 50 μl/min a solution of 32 nmol/l streptavidin dissolved in 10 mmol/L ammonium formate was added at a flow rate of 50 μl/min. The mixture was pumped through a knitted […]. poly(tetrafluoroethylene) reaction coil with an internal volume of 17 μl. Subsequently, a solution of 96 nmol/l fluorescein-biotin dissolved in 10 mmol/L ammonium formate/methanol (90:10, v/v) was added at a flow rate of 100 μl/min. The mixture was then pumped through a knitted […]. poly(tetrafluoroethylene) reaction coil with an internal volume of 33 μl and subsequently introduced into a mass spectrometer equipped with an electrospray ionization (ESI) source. Mass spectrometry was operated in selected-ion monitoring (SIM) in the positive-ion (PI) mode on [M+H]+and on one or more intense fragment ions. The ESI source conditions for the streptavidin/biotin system: source temperature, 80° C.; capillary voltage, 3.2 kV. The sampling cone voltage was 30 and 60 V for biotin and fluorescein-labeled biotin, respectively.
At point 1, only carrier buffer was pumped into the mass spectrometer providing a reference background signal. […] At point 3, the streptavidin pump was switched on.

| Molecule | effect of analyte injection on binding of reporter fluorescein-biotin to streptavidin (SIM MS signal at m/z 390) [2] | further results |
| --- | --- | --- |
| C[C@H]1O[C@@H](O[C@H]2[C@@H](O)C[C@H](O[C@H]3[C@@H](O)C[C@H](O[C@H]4CC[C@@]5(C)[C@H](CC[C@@H]6[C@@H]5C[C@@H](O)[C@]5(C)[C@@H](C7=CC(=O)OC7)CC[C@]65O)C4)O[C@@H]3C)O[C@@H]2C)C[C@H](O)[C@@H]1O [digoxin] | – | effect of injection on free fab anti-digoxigenin binding sites / free digoxigenin concentration (SIM MS signal at m/z 408) [1]: decrease of free fab anti-digoxigenin binding sites and an increase of the free digoxigenin concentration |
| N[C@@H](CCCCNC(=O)CCCC[C@@H]1SC[C@@H]2NC(=O)N[C@@H]21)C(=O)O [N-biotin-L-lysine] | capable to prevent the binding of the reporter molecule, fluorescein-biotin, to streptavidin | – |
| NNC(=O)CCCCCNC(=O)CCCC[C@@H]1SC[C@@H]2NC(=O)N[C@@H]21 [N-biotinyl-6-aminocaprioc hydrazide] | capable to prevent the binding of the reporter molecule, fluorescein-biotin, to streptavidin | – |
| fluorescein-biotin | – | effect of adding streptavidin on free reporter ligand (SIM MS signal at m/z 390) ([2]; FIG. 1, point 3): decrease of the concentration of free fluorescein-biotin |
| O=C(O)CCCC[C@@H]1SC[C@@H]2NC(=O)N[C@@H]21 [biotin] | capable to prevent the binding of the reporter molecule, fluorescein-biotin, to streptavidin | effect of injection on free streptavidin binding sites / free fluorescein-biotin concentration (SIM MS signal at m/z 390) ([2]; FIG. 1, point 4): decrease of free streptavidin binding sites and an increase of the free fluorescein-biotin concentration |
